Laboratory results reported in patent US9120774B2 (University of Kansas, priority 2009, dated 2015).
Read-outs that look alike come from different tables or passages of the source.

Key:
[1] = test system: Hsp90 client protein Her-2 in Skbr3 breast cancer cells; experiment: Degradation of Her-2, Western blot in Skbr3 cells; type: cell-based; conditions: Homo sapiens, SK-BR-3, read-out: IC50 (concentration producing 50% degradation of Her-2), 24 hours, normalized against actin
Method: After incubation, the cells were harvested, lysed, and equal amounts of the protein lysates loaded into SDS wells. After electrophoresis, the gel was probed with Her-2 and actin (control) antibodies.

[2] = test system: Hsp90-dependent client proteins ErbB2 (Her2) and p53 in SKBr3 breast cancer cells; conditions: previous studies; cited from earlier work
[3] = test system: SkBr3 (Her2 overexpressing breast cancer cells); experiment: Anti-proliferation activity against SkBr3 cells (MTS/PMS); type: cell-based; conditions: for IC50: Homo sapiens, SK-BR-3, n = 3, read-out: IC50 SkBr3
Procedure, shortened: (§1)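 Viability after 72 h compound treatment (1% DMSO final, 37° C., 5% CO2) measured by MTS/PMS; plating density 2000 cells/well with overnight attachment.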

[4] = test system: MCF-7 (estrogen receptor positive breast cancer cells); experiment: Anti-proliferation activity against MCF-7 cells (MTS/PMS); type: cell-based; conditions: Homo sapiens, MCF7, n = 3, read-out: IC50 MCF-7
Procedure, shortened: as §1

[5] = test system: HCT-116 (colon cancer cells characterized by wild-type p53); experiment: Anti-proliferation activity against HCT-116 cells; type: cell-based; conditions: Homo sapiens
[6] = test system: PL45 (pancreatic cancer cells); experiment: Anti-proliferation activity against PL45 cells; type: cell-based
[7] = test system: LNCaP (androgen sensitive prostate cancer cells); experiment: Anti-proliferation activity against LNCaP cells; type: cell-based; conditions: Homo sapiens, LNCaP, n = 3, read-out: IC50 LNCaP
Procedure, shortened: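 Cells seeded at 2000/well in Advanced DMEM/F12 with 10% FBS and attached overnight, then given compound in 1% DMSO final for 72 h at 37 °C, 5% CO2. Viable cells by MTS/PMS read-out, normalised to 1% DMSO as 100% proliferation. IC50 from separate triplicate experiments.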

[8] = test system: PC-3 (androgen independent prostate cancer cells); experiment: Anti-proliferation activity against PC-3 cells; type: cell-based; conditions: Homo sapiens, PC-3, n = 3, read-out: IC50 PC-3
Procedure, shortened: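 Antiproliferative activity was tested in PC-3 androgen-independent prostate cancer cells. Cells grown at 37° C. with 5% CO2 in Advanced DMEM/F12 (1:1) containing non-essential amino acids, 2 mM L-glutamine, streptomycin, penicillin and 10% FBS were plated at 2000/well in 96-well plates. Proliferation was normalized to 1% DMSO controls, and IC50 values from triplicate experiments were fitted in GraphPad Prism.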

cancer cell lines = experiment: Anti-proliferative activity, statements covering several cancer cell lines; type: cell-based
Method: Upon completion of synthesis of library of compounds in Examples 23 and 24, the compounds were evaluated for anti-proliferative activity against SkBr3 (Her2 overexpressing breast cancer cells), MCF-7 (estrogen receptor positive breast cancer cells), HCT-116 (colon cancer cells characterized by wild-type p53), PL45 (pancreatic cancer cells), LNCaP (androgen sensitive prostate cancer cells) and PC-3 (androgen independent prostate cancer cells) cell lines. […] The monosubstituted benzamide variants improved activity.
(§2) Cells were maintained in a 1:1 mixture of Advanced DMEM/F12 (Gibco) supplemented with non-essential amino acids, L-glutamine (2 mM), streptomycin (500 ng/mL), penicillin (100 units/mL), and 10% FBS. Cells were grown to confluence in a humidified atmosphere (37° C., 5% CO2), seeded (2000/well, 100 μl) in 96-well plates, and allowed to attach overnight. Compound or GDA at varying concentrations in DMSO (1% DMSO final concentration) was added, and cells were returned to the incubator for 72 hours. At 72 hours, the number of viable cells was determined using an MTS/PMS cell proliferation kit (Promega) per the manufacturer's instructions. Cells incubated in 1% DMSO were used at 100% proliferation, and values were adjusted accordingly. IC50 values were calculated from separate experiments performed in triplicate using GraphPad Prism.
as §2, with “μg/mL),” for “ng/mL),”, “μL)” for “μl)”

[9] = test system: Hsp90 client proteins Her2, Raf and Akt in MCF-7 breast cancer cells; experiment: Hsp90 client protein degradation, Western blot in MCF-7 cells; type: cell-based
Method: FIG. 17 is a western blot analysis of Hsp90 client protein degradation assays against MCF-7 breast cancer cells. The concentration of compound 46 (in μM) is denoted above each lane. Geldamycin and DMSO were used as positive and negative controls, respectively.
In order to provide additional evidence that the growth inhibitory activity manifested by the 2-indoleamide compound 46 resulted from Hsp90 inhibition, 46 was evaluated by its ability to induce degradation of Hsp90-dependent client proteins. […] Since non-Hsp90-dependent substrates such as actin remained unchanged, the inhibition of cell growth was directly correlated to the degradation of Hsp90-dependent client proteins.

primary cortical neurons = experiment: Toxicity of drug alone in neuronal cells (Live-Dead assay); type: cell-based
Excerpt: More specifically, primary cortical neurons were recovered from embryonic day 18 rat brains as described previously (Michaelis et al., Immunological Localization And Kinetic Characterization Of A Na+/Ca2+Exchanger In Neuronal And Nonneuronal Cells, Brain Res. 661 104-116 (1994)). Briefly, about 10 to 16 brains were removed from fetuses delivered by cesarean section, and the cortices dissected out. The neurons were isolated and suspended in DMEM/F12 supplemented with 10% FBS and plated on sterile dishes or cover slips coated with 10 μg/ml poly-D-lysine and 5 μg/ml mouse laminin. After 24 hours, the serum-containing medium was removed, and neurons were maintained in Neurobasal medium (Gibco) with 2% B-27 supplements (Gibco). Cells were maintained in culture at 37° C. in 5% CO2 and 97% humidity for 7 to 8 eight days in vitro (DIV) before use. […] Stock solutions of Aβ were prepared in sterile water at a concentration of 1.3 mM and stored at −20° C. Aliquots of the stock solutions were diluted to 1 mM in sterile 50 mM Tris-HCl, pH 7.4, and incubated at 37° C. for 24 hours to promote oligomerization of the peptides prior to treatment of the neurons. The effects of KU-1/A4, GA, Aβ, or the indicated combinations on neuronal viability were determined by monitoring cell survival using the Live-Dead assay as previously described. […] Digital images from 6 fields per dish were captured, and the number of viable (green) and dead (red) cells counted. All experiments were conducted with duplicate dishes from at least two neuronal preparations for each treatment, with about 1,000 cells analyzed/treatment condition. The data are expressed as the fraction of viable cells calculated from the total number of neurons counted under each treatment condition. The significance of differences between cultures exposed to various treatment conditions was determined using Student's t-test.

[10] = test system: SkBr3 (Her2 overexpressing breast cancer cells); conditions: previously published values; cited from earlier work
[11] = test system: MCF-7 (estrogen receptor positive breast cancer cells); conditions: previously published values; cited from earlier work
[12] = Table 4, biaryl analogues, n = 3
[13] = Table 5, heterocyclic analogues
[14] = Table 5, heterocyclic analogues, n = 3

Q: For `CO[C@@H]1[C@@H](OC(N)=O)[C@@H](O)[C@H](Oc2ccc3c(O)c(NC(=O)c4ccc(O)c(CC=C(C)C)c4)c(=O)oc3c2C)OC1(C)C` [novobiocin, reference compound], which IC50 [1] is on record?
A: 700 µM

Q: What about the “concentration inducing degradation of ErbB2” value [2] of the same compound?
A: about 700 μM

Q: What does the source list for `COc1ccccc1-c1cc(C(=O)Nc2cc3ccc(O[C@@H]4OC(C)(C)[C@H](OC)[C@@H](O)[C@H]4O)c(C)c3oc2=O)ccc1OC` [compound 32, N-(7-((2R,3R,4S,5R)-3,4-Dihydroxy-5-methoxy-6,6-dimethyltetrahydro-2H-pyran-2-yloxy)-8-methyl-2-oxo-2H-chromen-3-yl)-2′,6-dimethoxybiphenyl-3-carboxamide]?
A: IC50 ([3]; Table 4, biaryl analogues): 7.1 ± 0.6 µM; IC50 ([4]; Table 4, biaryl analogues): 15.6 ± 6.3 µM; IC50 [5, 12]: 5.2 ± 2.1 µM; IC50 [6, 12]: 3.8 ± 1.7 µM; IC50 ([7]; Table 4, biaryl analogues): 6 ± 1 µM; IC50 ([8]; Table 4, biaryl analogues): 52.3 ± 34.7 µM; fold improved inhibition compared to 28 (cancer cell lines): about 2 fold

Q: With `CO[C@@H]1[C@@H](O)[C@@H](O)[C@H](Oc2ccc3cc(NC(=O)c4cc5ccccc5[nH]4)c(=O)oc3c2C)OC1(C)C` [compound 46, N-(7-((2R,3R,4S,5R)-3,4-Dihydroxy-5-methoxy-6,6-dimethyltetrahydro-2H-pyran-2-yloxy)-8-methyl-2-oxo-2H-chromen-3-yl)-1H-indole-2-carboxamide] as the compound, how does the IC50 [3, 13] read?
A: 0.37 ± 0.06 µM

Q: What about the “fold increased activity compared to novobiocin” value ([3]; SkBr3 cells) of the same compound?
A: greater than 500 fold

Q: What about the IC50 [4, 13] of the same compound?
A: 0.57 ± 0.07 µM

Q: And the IC50 [5, 14]?
A: 0.17 ± 0.01 µM

Q: What about the IC50 [6, 14] of the same compound?
A: 0.47 ± 0.34 µM

Q: And the IC50 [7, 13]?
A: 12.2 µM

Q: And the IC50 [8, 13]?
A: 22.3 ± 10.1 µM

Q: What about the “Hsp90 client proteins Her2, Raf and Akt” value [9] of the same compound?
A: degraded in a concentration-dependent manner

Q: And the Hsp90 level [9]?
A: induced

Q: Which IC50 ([3]; Table 3) does the source give for `CO[C@@H]1[C@@H](O)[C@@H](O)[C@H](Oc2ccc3cc(NC(=O)/C=C/c4ccccc4)c(=O)oc3c2C)OC1(C)C` [compound 25, N-(7-((2R,3R,4S,5R)-3,4-Dihydroxy-5-methoxy-6,6-dimethyltetrahydro-2H-pyran-2-yloxy)-8-methyl-2-oxo-2H-chromen-3-yl)cinnamamide] here?
A: 2.6 ± 0.6 µM

Q: And the IC50 ([4]; Table 3)?
A: 4 ± 0.3 µM

Q: And the IC50 ([5]; Table 3, n = 3)?
A: 3.2 ± 0.5 µM

Q: What about the IC50 ([6]; Table 3, n = 3) of the same compound?
A: 3 ± 1 µM

Q: What about the IC50 ([7]; Table 3) of the same compound?
A: 4.5 ± 0.7 µM

Q: And the IC50 ([8]; Table 3)?
A: 3.9 ± 0.05 µM

Q: And the “fold increase in inhibitory activity versus the saturated derivative (23)” value (cancer cell lines)?
A: about 3 fold

Q: With `COC1=C2C[C@@H](C)C[C@H](OC)[C@H](O)[C@@H](C)/C=C(\C)[C@H](OC(N)=O)[C@@H](OC)/C=C\C=C(/C)C(=O)NC(=CC1=O)C2=O` [GA, reference compound] as the compound, how does the cytotoxicity (cancer cell lines; SkBr3 and MCF-7, 1 μM) read?
A: almost complete cytotoxicity

Q: What about the “cytotoxicity in neuronal cells” value (primary cortical neurons; 10 μM, 24 hours) of the same compound?
A: significant cytotoxicity

Q: What about the “cytotoxicity in neuronal cells” value (primary cortical neurons; lower concentrations, 72 hours) of the same compound?
A: substantial cytotoxicity

Q: And the IC50 [10]?
A: 0.018 µM

Q: What about the IC50 [11] of the same compound?
A: 0.133 µM

Q: For `CO[C@@H]1[C@@H](O)[C@@H](O)[C@H](Oc2ccc3cc(NC(=O)c4c[nH]c5ccccc45)c(=O)oc3c2C)OC1(C)C` [compound 47, N-(7-((2R,3R,4S,5R)-3,4-Dihydroxy-5-methoxy-6,6-dimethyltetrahydro-2H-pyran-2-yloxy)-8-methyl-2-oxo-2H-chromen-3-yl)-1H-indole-3-carboxamide], which IC50 [3, 13] is on record?
A: 12.2 ± 1.5 µM

Q: And the IC50 [4, 13]?
A: 5.3 ± 0.3 µM

Q: And the IC50 [5, 14]?
A: 3.5 ± 0.5 µM

Q: And the IC50 [6, 14]?
A: 1.8 ± 0.3 µM

Q: And the IC50 [7, 13]?
A: 2.3 ± 0.1 µM

Q: What about the IC50 [8, 13] of the same compound?
A: 4.8 ± 2.4 µM

Q: And the “times less effective than compound 46” value (cancer cell lines)?
A: 3-10 times

Q: Which results are given for `COc1ccc(C(=O)Nc2cc3ccc(O[C@@H]4OC(C)(C)[C@H](OC)[C@@H](O)[C@H]4O)c(C)c3oc2=O)cc1-c1ccccc1O` [compound 35, N-(7-((2R,3R,4S,5R)-3,4-Dihydroxy-5-methoxy-6,6-dimethyltetrahydro-2H-pyran-2-yloxy)-8-methyl-2-oxo-2H-chromen-3-yl)-2′-hydroxy-6-methoxybiphenyl-3-carboxamide]?
A: IC50 ([3]; Table 4, biaryl analogues): 1.5 ± 0.1 µM; IC50 ([4]; Table 4, biaryl analogues): 1.5 ± 0.1 µM; IC50 [5, 12]: 4.7 ± 1.4 µM; IC50 [6, 12]: 1.4 ± 0.2 µM; IC50 ([8]; Table 4, biaryl analogues): 16.6 ± 4.4 µM; fold improved inhibition compared to 28 (cancer cell lines): about 8 fold
